Molecules are shown by their SMILES.

Data on one molecule can be found in patent US20090253209A1, “Method of obtaining BZM purity, quantity of [123I]IBZM labeled ligand and quantity of BZM free ligand” (ATOMIC ENERGY COUNCIL - INSTITUTE OF NUCLEAR ENERGY RESEARCH, priority 2008, published 2009).

A short description of series [1]: solution stability test of BZM solution by HPLC. Conditions: BZM dissolved in DMSO, room temperature, three days. Format: physicochemical. From the text: (7) For the solution stability test, a sum of BZM solution is put under a room temperature to be processed with HPLC analysis for three days, as shown in FIG. 12. Consequently, the difference of BZM retention time is 0.64%; the resolution difference is 5.81%; the purity difference is −0.37%; the difference of a linear least square regression slope is −3.18%; and linear correlation coefficients are all greater than 0.9997.

In a further series the test system is D2/D3 receptor (D2/D3R). Conditions: in rats; compared with [^123I] IBZM; cited from earlier work.

Consider `CCN1CCC[C@H]1CNC(=O)c1c(O)cccc1OC` [BZM, (S)-(-)-2-hydroxy-6-methoxy-N-[(1-ethyl-2-pyrrolidinyl)methyl]benzamide], for which the “solution stability (in words)” value in series [1] is “good stability”. The “purity difference (solution stability)” value in series [1] (HPLC analysis) is −0.37%. The “bonding to D2/D3 receptor relative to [^123I] IBZM” value with D2/D3 receptor (D2/D3R) is “far small bonding to D2/D3 receptor (D2/D3R) than [^123I] IBZM”.
